How the values were obtained:
α4β1 Integrin = molecular target: T1, α4β1 Integrin (Homo sapiens, UniProt P05556+P13612); assay: α4β1 Integrin Adhesion Assay: Jurkat cell adhesion to human plasma fibronectin; format: cell-based; settings: Jurkat cells
T1 construct: endogenous in cells; host or cells: Jurkat cells
Method: 96 well plates (Costar 3590 EIA plates) were coated with human fibronectin (Gibco/BRL, cat #33016-023) at a concentration of 10 μg/mL overnight at 4° C. The plates were then blocked with a solution of bovine serum albumin (BSA; 0.3%) in saline. Jurkat™ cells (maintained in log phase growth) were labeled with Calcein AM according to the manufacturer's instructions, and suspended at a concentration of 2×10^6 cells/mL in Hepes/Saline/BSA. The cells were then exposed to test and control compounds for 30 minutes at room temperature before transfer to individual wells of the fibronectin coated plate. Adhesion was allowed to occur for 35 minutes at 37° C. The wells were then washed by gentle aspiration and pipetting with fresh saline. Fluorescence associated with the remaining adherent cells was quantified using a fluorescence plate reader at EX 485/EM 530.
Cell cultures were prepared by first splitting the stationary phase Jurkat™ cells at 1:10 on day one, and 1:2 on day two to perform assay on day 3. The cells split 1:10 on day one were split 1:4 on day 3 for a day 4 assay.
The assay plates were prepared by first making a working solution of Gibco/BRL Human Fibronectin (cat # 33016-023) in PBS++, at 10 μg/mL.
A Costar 3590 EIA plate was then coated with 50 μL/well for 2 hours at room temperature (thought it can also be left overnight at 4° C). Finally the plate was asperated and blocked with Hepes/Saline Buffer, 100 μL/well, for 1 hour at RT followed by washing three times with 150 μL of PBS++.
Compound dilutions were accomplished by preparing 1:3 serial dilutions of compounds as follows. For each plate (4 compounds/plate) 600 μL were added to 4 Bio-Rad Titertubes in a Titertube rack. Enough compound was added to each appropriate tube to give a 2× concentration using methods well known in the art. Using Falcon Flexiplates, 100 μL of Hepes/Saline buffer or human serum were added to rows B through G. A multi-channel pipetter set to 180 μL was used to with four tips spaced evenly the pipetter. Each set of four tubes was mixed 5 times and 180 μL, of 2× compound was transferred to the first column of each compound dilution in Row B, leaving Row A empty. 180 μL were added to the other wells in Row A. Serial dilutions were performed down the plate by transferring 50 μL to the next dilution and mixing 5 times, changing tips each time after mixing. Dilutions were stopped at Row F. Row G had no compound present.
A 20 μg/mL solution in Hepes/Saline buffer or human serum, of 21/6 antibody was the positive control and was set aside in a reagent trough to add to cell suspension plate.
The cell staining was accomplished by first harvesting the log-phase Jurkat™ cells by centrifugation in 50 mL tubes (1100 rpm for 5 minutes). The cells were resuspended in 50 mL PBS++, spun, and resuspend in 20 mL PBS++. The cells were stained by adding 20 μL of Calcein AM for 30 minutes R.T. The volume was brought to 50 mL with Hepes/Saline buffer and the cells were counted, spun, and resuspend to 2×10^6 cells/mL in Hepes/Saline buffer or human serum.
The compounds were incubated using the following procedure. In a new flexiplate, 65 μL of stained cells were added to Rows B through H. Then 65 μL of 2× compounds were added to the appropriate rows following the plate setup and mixed 3×. 65 μL of 2×-21/6 antibody were added to Row H and mixed 3×. Finally the plate was incubated at room temperature for 30 minutes.
Fibronectin adhesion was measured using a fluorescent plate reader at EX 485/EM 530 after the following work up procedure. After incubation, the cells were mixed 3× and 100 μL were transferred to the Fibronectin coated plates and incubated at 37° C. for about 35 minutes. Each plate was washed, row by row, by gently pipetting 100 μL of R.T. PBS++ down the sides of the wells and turning the plate 90 degrees to aspirate. This procedure was repeated for a total of 3 washes. Each well was filled with 100 μL after washing by pipetting down the side of the well. […]

[1] = Cassette dosing and serum analysis for determination of oral bioavailability; format: in vivo, Sprague Dawley (SD) rats; settings: rats, oral cassette of 6 compounds, total dose 10 mg/kg, plasma samples at 4, 8 and 12 h
Method: The oral bioavailability was screened by dosing rats with a cassette, i.e. mixture of 6 compounds per dosing solution. The cassette included 5 test articles and a standard compound, for a total dose of 10 mg/kg. Each compound/test article was converted to the sodium salt with equimolar 1 N NaOH and dissolved in water at 2 mg/mL. The cassette was prepared by mixing equal volumes of each of the six solutions. The cassette dosing solution was mixed well and then the pH was adjusted to 7.5-9. The dosing solution was prepared the day before the study and stirred overnight at room temperature.
Male Sprague Dawley (SD) rats from Charles River Laboratories, 6-8 weeks old were used in this screen. Rats were quarantined for at least one day and had continuous access to food and water. On the night before the administration of the cassette, the rats were fasted for approximately 16 h.
Four SD rats were assigned in each cassette. A single dose of the dosing solution was administered orally to each rat. The dosing volume (5 mL/kg) and time were recorded and rats were fed 2 h after dosing.
Blood samples were collected via cardiac puncture at the following time points: 4 h, 8 h and 12 h. Immediately prior to blood collection, rats were anesthetized with CO2 gas within 10-20 seconds. After the 12-hour samples were collected, the rats were euthanized via CO2 asphyxiation followed by cervical dislocation.
Blood samples were kept in heparinized microtainer tubes under sub-ambient temperature (4° C.) before they were processed. Blood samples were centrifuged (10000 rpm for 5 minutes) and plasma samples were removed and stored in a −20° C. freezer until analyzed for drug levels. Drug levels in the plasma were analyzed using the following protocol for direct plasma precipitation.
The in vivo plasma samples were prepared in a 1.5 mL 96-well plate, by adding, in order, 100 μL of the test plasma, 150 μL of methanol, followed by vortexing for 10-20 seconds. 150 μL of 0.05 ng/μL of an Internal Standard in acetonitrile were added and vortexed for 30 seconds.
The standard curve samples were prepared in a 1.5 mL 96-well plate, by adding, in order, 100 μL of control mouse plasma, followed by 150 μL of methanol and vortexing for 10-20 seconds. 150 μL of 0.05 ng/μL of an Internal Standard in acetonitrile were added and vortexed for 30 seconds. The samples were spiked with 0-200 ng (10 concentrations) of the compound of interest in 50% methanol to obtain a standard curve range of 0.5 ng/mL-2,000 ng/mL. Again, the sample was vortexed for 30 seconds.
The samples were then spun for 20-30 minutes at 3000 rpm in an Eppendorf microfuge before 80-90% of supernatant was transferred into a clean 96-well plate. The organic solvent was then evaporated until the samples were dry (under N2 at 40° C./30-60 min (ZymarkTurbovap)).
The residue was then dissolved in 200-600 L mobile phase (50% CH3OH/0.1% TFA). LC/MS/MS was then run using a PE-Sciex API-3000 triple quadurpole mass spectrometer (SN0749707), Perkin-Elmer, Series200auto-sampler, and shimadzu 10A pump. Acquisition was done with PE-Sciex Analyst (v1.1) and data analysis and quantification were accomplished using PE-Sciex Analyst (v1.1). A 5-50 μL sample volume was injected onto a reverse phase ThermoHypersil DASH-18 column (Keystone 2.0×20 mm, 5 μm, PN: 8823025-701) using a mobile phase of 25% CH3OH, 0.1% TFA-100% CH3OH, 0.1% TFA. The run time was about 8 minutes at a flow rate of about 300 μL/minutes.
The Area Under the Curve (AUC) was calculated using the linear trapezoidal rule from t=0 to the last sampling time tx (see Handbook of Basic Pharmacokinetics, Wolfgang A. Ritschel and Gregory L. Kearns, 5th ed, 1999). AUC^0−+tx=S((Cn+Cn+1)/2))·(tn+1−tn)[(μg/mL)h]
In the case of the cassette dosing paradigm, samples at 4, 8 and 12 h post extravascular dosing, the AUC was calculated from t=0 to t=12 h.

T1 sequence (P13612 34-1032): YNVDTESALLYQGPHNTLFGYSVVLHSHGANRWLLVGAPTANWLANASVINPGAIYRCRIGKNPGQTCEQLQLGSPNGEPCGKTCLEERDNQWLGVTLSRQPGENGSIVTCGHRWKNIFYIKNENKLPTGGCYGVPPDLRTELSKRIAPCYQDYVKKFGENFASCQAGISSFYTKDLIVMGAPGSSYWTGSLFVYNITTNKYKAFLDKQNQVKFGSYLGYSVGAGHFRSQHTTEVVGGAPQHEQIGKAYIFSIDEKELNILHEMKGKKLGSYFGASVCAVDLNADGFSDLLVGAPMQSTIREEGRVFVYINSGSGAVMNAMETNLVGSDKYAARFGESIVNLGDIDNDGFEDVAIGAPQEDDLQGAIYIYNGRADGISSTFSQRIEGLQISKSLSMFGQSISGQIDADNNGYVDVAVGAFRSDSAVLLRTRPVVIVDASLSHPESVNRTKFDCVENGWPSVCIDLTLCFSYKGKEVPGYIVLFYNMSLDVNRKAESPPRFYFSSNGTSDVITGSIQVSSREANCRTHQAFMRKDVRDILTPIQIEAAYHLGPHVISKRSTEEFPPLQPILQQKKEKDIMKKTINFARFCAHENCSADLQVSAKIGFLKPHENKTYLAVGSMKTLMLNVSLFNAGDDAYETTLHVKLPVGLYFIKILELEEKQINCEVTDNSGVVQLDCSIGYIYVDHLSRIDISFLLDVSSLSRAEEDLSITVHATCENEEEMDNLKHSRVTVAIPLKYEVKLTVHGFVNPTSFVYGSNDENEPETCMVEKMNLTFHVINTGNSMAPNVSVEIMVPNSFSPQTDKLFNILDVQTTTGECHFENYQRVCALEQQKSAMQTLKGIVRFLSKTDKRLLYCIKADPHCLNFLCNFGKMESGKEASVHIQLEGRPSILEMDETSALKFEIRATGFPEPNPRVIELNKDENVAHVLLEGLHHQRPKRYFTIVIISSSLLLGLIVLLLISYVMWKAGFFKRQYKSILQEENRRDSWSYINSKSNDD
T1 sequence (P05556 21-798): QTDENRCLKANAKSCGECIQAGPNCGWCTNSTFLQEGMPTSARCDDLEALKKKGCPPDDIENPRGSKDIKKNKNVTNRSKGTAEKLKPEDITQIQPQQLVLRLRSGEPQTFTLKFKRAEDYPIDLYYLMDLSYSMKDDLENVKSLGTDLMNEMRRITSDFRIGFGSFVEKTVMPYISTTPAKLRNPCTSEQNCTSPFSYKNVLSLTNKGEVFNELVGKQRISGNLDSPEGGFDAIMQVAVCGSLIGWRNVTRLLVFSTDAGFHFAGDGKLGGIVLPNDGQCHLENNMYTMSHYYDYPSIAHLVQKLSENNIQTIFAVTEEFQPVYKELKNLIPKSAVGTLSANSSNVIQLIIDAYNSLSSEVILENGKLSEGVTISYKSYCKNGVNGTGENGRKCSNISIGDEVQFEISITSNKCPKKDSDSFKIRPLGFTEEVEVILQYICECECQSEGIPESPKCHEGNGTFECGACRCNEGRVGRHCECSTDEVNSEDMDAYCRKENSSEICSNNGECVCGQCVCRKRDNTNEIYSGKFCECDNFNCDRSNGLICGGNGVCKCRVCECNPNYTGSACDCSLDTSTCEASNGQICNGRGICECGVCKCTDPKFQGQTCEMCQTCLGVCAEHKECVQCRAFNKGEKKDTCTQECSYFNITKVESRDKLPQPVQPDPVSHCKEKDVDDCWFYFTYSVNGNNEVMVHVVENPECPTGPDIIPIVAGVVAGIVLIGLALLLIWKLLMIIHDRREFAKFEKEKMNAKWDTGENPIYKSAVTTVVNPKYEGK

Substance: 2-{2-diethylamino-5-[(2,3-difluorobenzenesulfonyl)ethylamino]pyrimidin-4-ylamino}-3-(4-dimethylcarbamoyloxyphenyl)propionic acid [Example 26]
- IC50, Cell Adhesion to Human Plasma Fibronectin (With human serum) (α4β1 Integrin): 0.01848 µg/mL
- IC50, Cell Adhesion to Human Plasma Fibronectin (Without the human serum) (α4β1 Integrin): 1 ng/mL
- AUC (average AUC 0-12 h) [1]: 0.3392 (μg/mL)h

Substance: 2-{2-diethylamino-5-[(2,4-difluorobenzenesulfonyl)ethylamino]pyrimidin-4-ylamino}-3-(4-dimethylcarbamoyloxyphenyl)propionic acid [Example 18]
- IC50, Cell Adhesion to Human Plasma Fibronectin (With human serum) (α4β1 Integrin): 0.025 µg/mL
- IC50, Cell Adhesion to Human Plasma Fibronectin (Without the human serum) (α4β1 Integrin): 2 ng/mL
- AUC (average AUC 0-12 h) [1]: 0.2578 (μg/mL)h

Substance: 2-{2-diethylamino-5-[(2,4-difluorobenzenesulfonyl)methylamino]pyrimidin-4-ylamino}-3-(4-dimethylcarbamoyloxyphenyl)propionic acid [Example 17]
- IC50, Cell Adhesion to Human Plasma Fibronectin (With human serum) (α4β1 Integrin): 0.024 µg/mL
- IC50, Cell Adhesion to Human Plasma Fibronectin (Without the human serum) (α4β1 Integrin): 1 ng/mL
- AUC (average AUC 0-12 h) [1]: 1.0075 (μg/mL)h

Substance: 2-{2-diethylamino-5-[(2,5-difluorobenzenesulfonyl)methylamino]pyrimidin-4-ylamino}-3-(4-dimethylcarbamoyloxyphenyl)propionic acid [Example 25]
- IC50, Cell Adhesion to Human Plasma Fibronectin (With human serum) (α4β1 Integrin): 6.72 µg/mL
- IC50, Cell Adhesion to Human Plasma Fibronectin (Without the human serum) (α4β1 Integrin): 6 ng/mL
- AUC (average AUC 0-12 h) [1]: 0.4559 (μg/mL)h

Substance: 2-{2-diethylamino-5-[(3,4-dichlorobenzenesulfonyl)methylamino]pyrimidin-4-ylamino}-3-(4-dimethylcarbamoyloxyphenyl)propionic acid [Example 4]
- IC50, Cell Adhesion to Human Plasma Fibronectin (With human serum) (α4β1 Integrin): 0.4 µg/mL
- IC50, Cell Adhesion to Human Plasma Fibronectin (Without the human serum) (α4β1 Integrin): 4 ng/mL
- AUC (average AUC 0-12 h) [1]: 0.5965 (μg/mL)h

Substance: 2-{2-diethylamino-5-[(3,4-difluorobenzenesulfonyl)ethylamino]pyrimidin-4-ylamino}-3-(4-dimethylcarbamoyloxyphenyl)propionic acid [Example 12]
- IC50, Cell Adhesion to Human Plasma Fibronectin (With human serum) (α4β1 Integrin): 0.06 µg/mL
- IC50, Cell Adhesion to Human Plasma Fibronectin (Without the human serum) (α4β1 Integrin): 3 ng/mL
- AUC (average AUC 0-12 h) [1]: 0.8447 (μg/mL)h

Substance: 2-{2-diethylamino-5-[(3,5-dichlorobenzenesulfonyl)ethylamino]pyrimidin-4-ylamino}-3-(4-dimethylcarbamoyloxyphenyl)propionic acid [Example 20]
- IC50, Cell Adhesion to Human Plasma Fibronectin (With human serum) (α4β1 Integrin): 0.07751 µg/mL
- IC50, Cell Adhesion to Human Plasma Fibronectin (Without the human serum) (α4β1 Integrin): 5.114 ng/mL
- AUC (average AUC 0-12 h) [1]: 0.0536 (μg/mL)h

Substance: 2-{2-diethylamino-5-[(3,5-dichlorobenzenesulfonyl)methylamino]pyrimidin-4-ylamino}-3-(4-dimethylcarbamoyloxyphenyl)propionic acid [Example 19]
- IC50, Cell Adhesion to Human Plasma Fibronectin (With human serum) (α4β1 Integrin): 0.08535 µg/mL
- IC50, Cell Adhesion to Human Plasma Fibronectin (Without the human serum) (α4β1 Integrin): 3.393 ng/mL
- AUC (average AUC 0-12 h) [1]: 0.0697 (μg/mL)h

Substance: 2-{2-diethylamino-5-[(3,5-difluorobenzenesulfonyl)ethylamino]pyrimidin-4-ylamino}-3-(4-dimethylcarbamoyloxyphenyl)propionic acid [Example 16]
- IC50, Cell Adhesion to Human Plasma Fibronectin (With human serum) (α4β1 Integrin): 0.06707 µg/mL
- IC50, Cell Adhesion to Human Plasma Fibronectin (Without the human serum) (α4β1 Integrin): 1.035 ng/mL
- AUC (average AUC 0-12 h) [1]: 0.1721 (μg/mL)h

Substance: 2-{2-diethylamino-5-[(3,5-difluorobenzenesulfonyl)methylamino]pyrimidin-4-ylamino}-3-(4-dimethylcarbamoyloxyphenyl)propionic acid [Example 15]
- IC50, Cell Adhesion to Human Plasma Fibronectin (With human serum) (α4β1 Integrin): 0.1243 µg/mL
- IC50, Cell Adhesion to Human Plasma Fibronectin (Without the human serum) (α4β1 Integrin): 0.915 ng/mL
- AUC (average AUC 0-12 h) [1]: 0.2098 (μg/mL)h

Substance: 2-{2-diethylamino-5-[(3-fluorobenzenesulfonyl)methylamino]pyrimidin-4-ylamino}-3-(4-dimethylcarbamoyloxyphenyl)propionic acid [Example 7]
- IC50, Cell Adhesion to Human Plasma Fibronectin (With human serum) (α4β1 Integrin): 0.5869 µg/mL
- IC50, Cell Adhesion to Human Plasma Fibronectin (Without the human serum) (α4β1 Integrin): 0.821 ng/mL
- AUC (average AUC 0-12 h) [1]: 0.717 (μg/mL)h

Substance: 2-{2-diethylamino-5-[(chlorobenzenesulfonyl)ethylamino]pyrimidin-4-ylamino}-3-(4-dimethylcarbamoyloxyphenyl)propionic acid [Example 13]
- IC50, Cell Adhesion to Human Plasma Fibronectin (With human serum) (α4β1 Integrin): 0.075 µg/mL
- IC50, Cell Adhesion to Human Plasma Fibronectin (Without the human serum) (α4β1 Integrin): 4 ng/mL
- AUC (average AUC 0-12 h) [1]: 1.5806 (μg/mL)h

Reference: patent publication US7335663B2, “Heteroaryl compounds which inhibit leukocyte adhesion mediated by α4 integrins” (Elan Pharmaceuticals, Inc., priority 2002, dated 2008)
